Measurements from the Kinase Knowledgebase extract (Sharma et al. 2016).

Experiments:
[1] = target: PIK3CD (Human) (UniProt O00329); test: Cell-Based Assay; conditions: rat-1
[2] = target: PIK3CA (human) (UniProt P42336); test: Cell-Based Assay; conditions: rat-1
[3] = target: PIK3CG (human) (UniProt P48736); test: Cell-Based Assay; conditions: u937
[4] = target: PIK3CD (Human) (UniProt O00329); test: Enzyme Assay
[5] = target: PIK3CA (human) (UniProt P42336); test: Enzyme Assay
[6] = target: PIK3CG (human) (UniProt P48736); test: Enzyme Assay

PIK3CD (Human), sequence (O00329 whole entry, looked up): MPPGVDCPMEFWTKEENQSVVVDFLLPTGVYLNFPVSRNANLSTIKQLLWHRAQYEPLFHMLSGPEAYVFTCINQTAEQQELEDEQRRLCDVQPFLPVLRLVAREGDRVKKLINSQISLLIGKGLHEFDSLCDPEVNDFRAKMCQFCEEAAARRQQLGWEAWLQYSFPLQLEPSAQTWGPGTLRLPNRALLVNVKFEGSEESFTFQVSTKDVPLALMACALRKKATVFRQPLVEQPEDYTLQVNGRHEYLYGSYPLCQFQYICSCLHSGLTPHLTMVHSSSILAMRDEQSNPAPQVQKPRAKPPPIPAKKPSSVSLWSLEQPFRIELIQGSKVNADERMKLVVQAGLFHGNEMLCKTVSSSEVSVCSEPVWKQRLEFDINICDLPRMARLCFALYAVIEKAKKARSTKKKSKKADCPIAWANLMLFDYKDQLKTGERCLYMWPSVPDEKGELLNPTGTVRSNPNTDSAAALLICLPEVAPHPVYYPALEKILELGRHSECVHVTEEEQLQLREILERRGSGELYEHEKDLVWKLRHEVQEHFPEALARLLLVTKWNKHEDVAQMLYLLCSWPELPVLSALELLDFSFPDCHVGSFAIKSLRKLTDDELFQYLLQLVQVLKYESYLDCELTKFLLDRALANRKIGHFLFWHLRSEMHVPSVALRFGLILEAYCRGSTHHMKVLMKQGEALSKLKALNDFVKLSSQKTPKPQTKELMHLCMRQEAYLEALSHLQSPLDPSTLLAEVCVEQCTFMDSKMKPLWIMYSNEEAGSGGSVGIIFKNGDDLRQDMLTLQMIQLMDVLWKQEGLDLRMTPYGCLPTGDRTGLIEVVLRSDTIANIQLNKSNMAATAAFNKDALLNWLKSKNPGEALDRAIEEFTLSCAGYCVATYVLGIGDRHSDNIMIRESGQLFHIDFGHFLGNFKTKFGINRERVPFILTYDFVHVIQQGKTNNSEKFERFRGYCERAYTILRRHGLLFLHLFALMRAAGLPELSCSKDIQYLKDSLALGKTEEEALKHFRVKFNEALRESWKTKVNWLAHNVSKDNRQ
PIK3CA (human), sequence (P42336 whole entry, looked up): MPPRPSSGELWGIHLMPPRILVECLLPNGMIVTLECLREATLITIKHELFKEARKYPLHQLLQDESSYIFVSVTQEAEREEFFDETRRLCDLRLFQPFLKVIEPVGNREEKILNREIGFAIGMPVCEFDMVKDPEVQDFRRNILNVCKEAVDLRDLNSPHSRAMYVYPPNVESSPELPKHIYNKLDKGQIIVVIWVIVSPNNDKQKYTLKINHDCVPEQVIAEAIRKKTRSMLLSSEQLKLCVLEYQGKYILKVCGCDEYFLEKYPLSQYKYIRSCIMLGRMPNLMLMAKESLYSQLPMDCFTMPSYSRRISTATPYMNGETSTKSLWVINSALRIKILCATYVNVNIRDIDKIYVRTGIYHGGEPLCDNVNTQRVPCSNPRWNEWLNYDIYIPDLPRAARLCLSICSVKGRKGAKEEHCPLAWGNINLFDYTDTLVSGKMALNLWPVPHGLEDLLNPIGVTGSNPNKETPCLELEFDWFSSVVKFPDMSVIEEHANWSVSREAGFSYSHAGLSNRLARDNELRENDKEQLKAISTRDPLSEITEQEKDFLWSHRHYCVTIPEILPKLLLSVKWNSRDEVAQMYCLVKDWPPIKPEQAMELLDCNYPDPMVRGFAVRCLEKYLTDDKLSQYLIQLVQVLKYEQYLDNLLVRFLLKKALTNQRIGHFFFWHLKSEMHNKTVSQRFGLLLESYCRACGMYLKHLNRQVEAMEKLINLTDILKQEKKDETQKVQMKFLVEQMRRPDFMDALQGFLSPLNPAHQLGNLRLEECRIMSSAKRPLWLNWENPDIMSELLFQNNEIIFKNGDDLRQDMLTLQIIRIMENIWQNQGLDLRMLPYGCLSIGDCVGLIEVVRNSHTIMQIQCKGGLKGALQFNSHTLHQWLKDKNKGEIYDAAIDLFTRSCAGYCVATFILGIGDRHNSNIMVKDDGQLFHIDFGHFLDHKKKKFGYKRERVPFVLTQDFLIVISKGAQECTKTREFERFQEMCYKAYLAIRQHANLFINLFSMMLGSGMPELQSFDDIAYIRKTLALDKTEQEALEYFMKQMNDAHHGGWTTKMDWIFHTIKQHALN
PIK3CG (human), sequence (P48736 whole entry, looked up): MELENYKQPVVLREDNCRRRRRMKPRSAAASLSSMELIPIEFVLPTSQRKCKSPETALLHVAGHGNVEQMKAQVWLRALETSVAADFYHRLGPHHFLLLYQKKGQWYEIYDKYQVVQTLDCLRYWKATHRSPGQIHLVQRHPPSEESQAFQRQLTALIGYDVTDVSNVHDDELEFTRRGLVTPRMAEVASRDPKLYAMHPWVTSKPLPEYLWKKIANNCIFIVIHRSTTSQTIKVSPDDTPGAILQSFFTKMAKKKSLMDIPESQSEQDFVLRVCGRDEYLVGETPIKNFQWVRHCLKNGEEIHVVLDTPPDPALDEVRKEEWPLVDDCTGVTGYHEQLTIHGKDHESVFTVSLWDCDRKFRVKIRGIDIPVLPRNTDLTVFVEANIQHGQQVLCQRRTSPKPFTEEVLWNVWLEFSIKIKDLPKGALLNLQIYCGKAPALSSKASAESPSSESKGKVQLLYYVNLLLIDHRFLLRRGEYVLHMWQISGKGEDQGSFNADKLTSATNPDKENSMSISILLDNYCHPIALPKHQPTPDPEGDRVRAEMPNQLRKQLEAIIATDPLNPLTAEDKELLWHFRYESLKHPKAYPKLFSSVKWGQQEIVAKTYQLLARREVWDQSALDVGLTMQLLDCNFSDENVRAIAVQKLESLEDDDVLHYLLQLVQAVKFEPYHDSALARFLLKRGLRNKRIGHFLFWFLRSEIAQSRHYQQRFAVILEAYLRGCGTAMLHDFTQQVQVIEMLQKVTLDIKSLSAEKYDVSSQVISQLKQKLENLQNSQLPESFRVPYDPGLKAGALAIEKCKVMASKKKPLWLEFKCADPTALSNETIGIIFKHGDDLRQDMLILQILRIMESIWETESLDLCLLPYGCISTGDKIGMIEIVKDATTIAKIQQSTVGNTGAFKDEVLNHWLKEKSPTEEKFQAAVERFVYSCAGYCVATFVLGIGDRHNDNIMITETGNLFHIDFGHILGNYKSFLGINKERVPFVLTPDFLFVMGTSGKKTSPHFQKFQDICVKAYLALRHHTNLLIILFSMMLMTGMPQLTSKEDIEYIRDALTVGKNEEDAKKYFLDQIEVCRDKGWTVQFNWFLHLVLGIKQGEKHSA

SMILES	IC50 [1] [nM]	IC50 [2] [nM]	IC50 [3] [nM]	IC50 [4] [nM]	IC50 [5] [nM]	IC50 [6] [nM]
CS(=O)(=O)c1cccc2nc([C@@H]3CCCN3c3ncnc(N)c3C#N)n(-c3ccccc3)c(=O)c12	38	4600	821	7	5100	1200
N#Cc1c(N)ncnc1N1CCC[C@H]1c1nc2cccc(O)c2c(=O)n1-c1ccccc1	15	> 10000	494	3	1430	110
N#Cc1c(N)ncnc1N1C[C@@H](O)C[C@H]1c1nc2cccc(Cl)c2c(=O)n1-c1ccccc1	< 3	2850	268	4	1000	50
N#Cc1c(C(F)F)nc(N)nc1N1C[C@@H](O)C[C@H]1c1nc2cccc(C(F)(F)F)c2c(=O)n1-c1ccccc1	517	> 10000	187	220	> 10000	58
Cc1nc(N)nc(N2C[C@@H](O)C[C@H]2c2nc3cccc(C(F)(F)F)c3c(=O)n2N2CCOCC2)c1C#N	92	4590	83	66	2000	100
Cc1nc(N)nc(N2C[C@@H](O)C[C@H]2c2nc3cccc(C(F)(F)F)c3c(=O)n2-c2cccnc2)c1C#N	67	> 10000	206	960	1800	220
N#Cc1c(N)ncnc1N1C[C@@H](O)C[C@H]1c1nc2cccc(C(F)(F)F)c2c(=O)n1-c1cccnc1	86	3860	163	84	3800	1300
N#Cc1c(N)ncnc1N1CSC[C@H]1c1nc2cccc(Cl)c2c(=O)n1-c1ccccc1	14	8120	> 10000	5	2340	129
N#Cc1c(N)ncnc1N1C[C@@H](O)C[C@H]1c1nc2cccc(F)c2c(=O)n1-c1ccccc1	23	> 10000	709	82	> 10000	2100
O=c1c2c(C(F)(F)F)cccc2nc([C@@H]2C[C@H](F)CN2c2ncnc3[nH]cnc23)n1-c1ccccc1	33	5230	88	< 3	3600	68
Cc1nc(N)nc(N2C[C@@H](O)C[C@H]2c2nc3cccc(C)c3c(=O)n2-c2ccccc2)c1C#N	< 3	601	35	< 3	160	< 3
Nc1nc(N2CCC[C@H]2c2nc3cccc(Cl)c3c(=O)n2N2CCOCC2)c2nccn2n1	130	> 10000	399	22	2600	190
Cc1nc(N)nc(N2C[C@@H](O)C[C@H]2c2nc3cccc(Cl)c3c(=O)n2C2CC2)c1C#N	86	4230	219	221	698	85
N#Cc1c(N)ncnc1N1CCC[C@H]1c1nc2cccc(Cl)c2c(=O)n1-c1ccccc1	7	1750	74	< 3	393	24
CS(=O)(=O)c1c(F)ccc2nc([C@@H]3CCCN3c3ncnc(N)c3C#N)n(-c3ccccc3)c(=O)c12	65	> 10000	> 10000	84	4500	7200
CO[C@H]1C[C@@H](c2nc3cccc(Cl)c3c(=O)n2-c2ccccc2)N(c2ncnc(N)c2C#N)C1	10	4040	209	4	1300	35
CO[C@H]1C[C@@H](c2nc3cccc(Cl)c3c(=O)n2C2CC2)N(c2ncnc(N)c2C#N)C1	26	3230	473	128	2800	417
N#Cc1c(N)ncnc1N1CCC[C@H]1c1nc2cccc(C(F)(F)F)c2c(=O)n1-c1cccc(F)c1	38	9950	718	19	5600	660
Nc1nc(N2CCC[C@H]2c2nc3cccc(Cl)c3c(=O)n2C2CC2)c2nc[nH]c2n1	349	8120	886	85	3600	110
Cc1nc(N)nc(N2C[C@@H](O)C[C@H]2c2nc3ccc(F)c(C)c3c(=O)n2-c2ccccc2)c1C#N	7	1090	18	14	270	24
CO[C@H]1C[C@@H](c2nc3cccc(Cl)c3c(=O)n2-c2ccccc2)N(c2nc(N)nc(C)c2C#N)C1	6	1320	38	53	565	30
CO[C@H]1C[C@@H](c2nc3cccc(Cl)c3c(=O)n2-c2ccccc2)N(c2ncnc3[nH]cnc23)C1	43	5480	352	11	1000	27
N#Cc1c(N)ncnc1N1C[C@@H](O)C[C@H]1c1nc2ccc(F)c(Cl)c2c(=O)n1-c1ccccc1	27	8020	26	47	2800	990
Nc1nc(N2C[C@@H](F)C[C@H]2c2nc3cccc(C(F)(F)F)c3c(=O)n2-c2cccnc2)c2nc[nH]c2n1	240	> 10000	76	64	4400	48
Nc1nc(N2C[C@@H](F)C[C@H]2c2nc3cccc(C(F)(F)F)c3c(=O)n2-c2cccc(F)c2)c2nc[nH]c2n1	50	8250	71	26	2500	38
CO[C@H]1C[C@@H](c2nc3cccc(C(F)(F)F)c3c(=O)n2N2CCOCC2)N(c2ncnc(N)c2C#N)C1	117	> 10000	1890	53	> 10000	1900
N#Cc1c(N)ncnc1N1CCC[C@H]1c1nc2cccc(C(F)(F)F)c2c(=O)n1-c1cccnc1	98	5930	934	75	2700	950
Cc1c(F)ccc2nc([C@@H]3C[C@H](O)CN3c3ncnc(N)c3C#N)n(-c3ccccc3)c(=O)c12	7	2720	331	10	2200	370
N#Cc1c(N)ncnc1N1CCC[C@H]1c1nc2cccc(Cl)c2c(=O)n1C1CC1	43	4020	74	7	560	25
